# Test results taken from patent US8975288B2 (priority 2013, dated 2015).
# “Also recorded” adds a separate entry of the source. Like-named read-outs stand apart in the source and are kept apart here.
# Experiments:
# [1] = system: B. anthracis Sterne (pXO1+, pXO2−); assay: microbe, parasite or virus in culture; assay type: cell-based; details: Bacillus anthracis
# S. flexneri [2] = assay: microbe, parasite or virus in culture; assay type: cell-based; details: Shigella flexneri
# trans-translation = assay type: biochemical, E. coli; details: 10 μM final concentration; DHFR template lacking the stop codon; tagging efficiency vs no inhibitor control
# B. anthracis ΔclpX+pclpX = assay: microbe, parasite or virus in culture; assay type: cell-based; details: Bacillus anthracis, 24 h, read-out: IC50 ΔclpX + pclpX
# B. anthracis = assay type: cell-based
# E. coli TolC mutant = assay: microbe, parasite or virus in culture; assay type: cell-based; details: Escherichia coli, read-out: MIC E. coil TolC
# Mycobacterium smegmatis = assay: microbe, parasite or virus in culture; assay type: cell-based; details: Mycolicibacterium smegmatis, read-out: MIC Mycobacterium smegmatis
# WT B. anthracis Sterne = assay: microbe, parasite or virus in culture; assay type: cell-based; details: Bacillus anthracis, 24 h, read-out: IC50 WT B. anthracis
# [3] = system: Auto-luminescent M. tuberculosis (LuxTB); assay: microbe, parasite or virus in culture; assay type: cell-based; details: Mycobacterium tuberculosis, read-out: IC50 M. tuberculosis
# WT+pUTE29 (empty vector) = assay: microbe, parasite or virus in culture; assay type: cell-based, B. anthracis; details: Bacillus anthracis, 24 h, read-out: IC50 WT + pUTE29
# B. anthracis ΔclpX = assay: microbe, parasite or virus in culture; assay type: cell-based; details: Bacillus anthracis, 24 h, read-out: IC50 ΔclpX
# S. flexneri [4] = assay: microbe, parasite or virus in culture; assay type: cell-based; details: Shigella flexneri, 24 h, read-out: IC50 S. flexneri
# B. subtilis = assay: microbe, parasite or virus in culture; assay type: cell-based; details: Bacillus subtilis, 24 h, read-out: MIC B. subtilis
# HeLa cells = details: human
# MRSA strain, Sanger 252 = assay type: cell-based, S. aureus
# B. anthracis Sterne = assay type: cell-based
# ΔclpX+pUTE29 = assay: microbe, parasite or virus in culture; assay type: cell-based, B. anthracis; details: Bacillus anthracis, 24 h, read-out: IC50 ΔclpX + pUTE29
# [5] = system: S. aureus methicillin-susceptible strain, Newman; assay type: cell-based
# B. anthracis spores = assay type: cell-based
# [6] = system: Wild-type M. tuberculosis; assay: microbe, parasite or virus in culture; assay type: cell-based; details: Mycobacterium tuberculosis, read-out: MIC against M. tuberculosis
# [7] = 24 h, read-out: MIC B. anthracis
# [8] = read-out: MIC Bacillus anthracis
# [9] = 24 h, read-out: MIC S. flexneri
compound,measurement,setting,value
"CCCn1nnnc1NC(=O)c1cccc(Br)c1 [Compound 2, 3-bromo-N-(1-propyl-1H-tetrazol-5-yl)benzamide]",MIC,[1]; read-out: MIC B. anthracis,> 500 µM
same,MIC,S. flexneri [2]; read-out: MIC S. flexneri,250 µM
"CCCn1nnnc1NC(=O)c1cccc(Cl)c1 [Compound F2, reference compound]",% inhibition in vitro,trans-translation,88.0%
same,IC50,B. anthracis ΔclpX+pclpX,14.8 µM
same,Killing of B. anthracis in human whole blood vs vehicle control,B. anthracis,significantly enhanced killing
same,MIC,E. coli TolC mutant,12.5 µM
same,MIC,[1]; [7],31.2 µM
same,MIC,[1]; read-out: MIC B. anthracis,25 µM
same,MIC,[1]; [8],25 µM
same,MIC,Mycobacterium smegmatis,25 µM
same,IC50,WT B. anthracis Sterne,17.6 µM
same,IC50,[3]; 48 h,292 µM
same,IC50,[3]; 72 h,226 µM
same,IC50,[3]; 96 h,115 µM
same,IC50,WT+pUTE29 (empty vector),27.5 µM
same,IC50,B. anthracis ΔclpX,27 µM
same,IC50,S. flexneri [4],5.95 µM
same,MIC,B. subtilis,26.1 µM
same,Dose at which cytotoxicity in mammalian cells is seen,HeLa cells,500 to 1000 µM
same,Bacterial survival (cfu/ml) of MRSA,"MRSA strain, Sanger 252",significantly reduced bacterial survival in a synergistic manner
same,Direct antimicrobial activity against MRSA Sanger 252,"MRSA strain, Sanger 252",direct antimicrobial activity
same,Reduction of survival of MRSA Sanger 252,"MRSA strain, Sanger 252","at least 10,000 fold"
same,Survival of MRSA Sanger 252,"MRSA strain, Sanger 252",only slightly reduced
same,Bacterial survival (cfu/ml) of B. anthracis Sterne,B. anthracis Sterne,significantly reduced bacterial survival in a synergistic manner
same,Direct antimicrobial activity against B. anthracis Sterne,B. anthracis Sterne,direct antimicrobial activity
same,Survival of B. anthracis Sterne vs vehicle control,B. anthracis Sterne,negligible effect on survival
same,IC50,ΔclpX+pUTE29,22.3 µM
same,MIC,S. flexneri [2]; [9],7.8 µM
same,MIC,S. flexneri [2]; read-out: MIC S. flexneri,3.13 µM
same,MIC,S. flexneri [2]; read-out: MIC Shigella flexneri,3.1 µM
same,Survival of S. aureus Newman,[5],only slightly reduced; also recorded: No colonies were recovered
same,Vegetative cells from spores (inhibition of spore germination),B. anthracis spores,No vegetative cells were observed
"O=C(Nc1ccncc1)c1cccc(Cl)c1 [Compound 11, 3-chloro-N-(pyridin-4-yl)benzamide]",% inhibition in vitro,trans-translation,57.9%
same,MIC,[1]; read-out: MIC B. anthracis,> 500 µM
same,MIC,S. flexneri [2]; read-out: MIC S. flexneri,500 µM
"CCCn1nnnc1NC(=O)c1ccccc1 [Compound 1, N-(1-propyl-1H-tetrazol-5-y1)benzamide]",MIC,[1]; read-out: MIC B. anthracis,> 500 µM
same,MIC,S. flexneri [2]; read-out: MIC S. flexneri,> 500 µM
CCCCCCCCCC(=O)N[C@@H](Cc1c[nH]c2ccccc12)C(=O)N[C@H](CC(N)=O)C(=O)N[C@@H](CC(=O)O)C(=O)N[C@@H]1C(=O)NCC(=O)N[C@@H](CCCN)C(=O)N[C@@H](CC(=O)O)C(=O)N[C@H](C)C(=O)N[C@@H](CC(=O)O)C(=O)NCC(=O)N[C@H](CO)C(=O)N[C@@H]([C@H](C)CC(=O)O)C(=O)N[C@@H](CC(=O)c2ccccc2N)C(=O)O[C@@H]1C [daptomycin],Effect on parental and complemented B. anthracis strains,B. anthracis Sterne,not significantly affected
CS(=O)(=O)NCCn1nnnc1NC(=O)c1cccc(Cl)c1 [Compound 14],% inhibition in vitro,trans-translation,47.8%
"CCCn1nnnc1NC(=O)c1ccc(N(C)C)cc1 [Compound 4, 4-(dimethylamino)-N-(1-propyl-1H-tetrazol-5-yl)benzamide]",% inhibition in vitro,trans-translation,74.9%
same,MIC,[1]; read-out: MIC B. anthracis,> 500 µM
same,MIC,S. flexneri [2]; read-out: MIC S. flexneri,> 500 µM
"CCCn1nnnc1NC(=O)c1cccc(F)c1 [Compound 3, 3-fluoro-N-(1-propyl-1H-tetrazol-5-yl)benzamide]",MIC,[1]; read-out: MIC B. anthracis,> 500 µM
same,MIC,S. flexneri [2]; read-out: MIC S. flexneri,> 500 µM
"O=C(Nc1ccccc1)c1cccc(Cl)c1 [Compound 10, 3-chloro-N-phenylbenzamide]",% inhibition in vitro,trans-translation,68.1%
same,MIC,[1]; read-out: MIC B. anthracis,> 500 µM
same,MIC,S. flexneri [2]; read-out: MIC S. flexneri,> 500 µM
O=C(Nc1nnn[nH]1)c1cccc(Cl)c1 [Compound 9],% inhibition in vitro,trans-translation,78.9%
"O=C(Nc1nnnn1CCNS(=O)(=O)c1ccccc1)c1cccc(Cl)c1 [Compound 16, 3-chloro-N-(1-(2-(phenylsulfonamido)ethyl)-1H-tetrazol-5-yl)benzamide]",% inhibition in vitro,trans-translation,37.0%
same,MIC,[1]; [8],400 µM
"CCCn1nnnc1NC(=O)c1ccc(N(CC)CC)cc1 [Compound 5, 4-(diethylamino)-N-(1-propyl-1H-tetrazol-5-yl)-benzamide]",MIC,[1]; read-out: MIC B. anthracis,> 500 µM
same,MIC,S. flexneri [2]; read-out: MIC S. flexneri,> 500 µM
"CCCn1nnnc1NC(=O)C1CCCC1 [Compound 8, N-(1-propyl-1H-tetrazol-5-yl)cyclopentane-carboxamide]",MIC,[1]; read-out: MIC B. anthracis,> 500 µM
same,MIC,S. flexneri [2]; read-out: MIC S. flexneri,> 500 µM
"CCCn1nnnc1NC(=O)C1CCCCC1 [Compound 7, N-(1-propyl-1H-tetrazol-5-yl)cyclohexane-carboxamide]",MIC,[1]; read-out: MIC B. anthracis,> 500 µM
same,MIC,S. flexneri [2]; read-out: MIC S. flexneri,> 500 µM
"O=C(NC1CCCC1)c1cccc(Cl)c1 [Compound 13, 3-chloro-N-cyclopentylbenzamide]",% inhibition in vitro,trans-translation,71.6%
same,MIC,[1]; read-out: MIC B. anthracis,> 500 µM
same,MIC,S. flexneri [2]; read-out: MIC S. flexneri,> 500 µM
LL-37,Survival of MRSA Sanger 252,"MRSA strain, Sanger 252",only slightly reduced
same,Survival of B. anthracis Sterne vs vehicle control,B. anthracis Sterne,negligible effect on survival
same,Survival of S. aureus Newman,[5],only slightly reduced
"NCCn1nnnc1NC(=O)c1cccc(Cl)c1 [Compound D, N-(1-(2-aminoethyl)-1H-tetrazol-5-yl)-3-chlorobenzamide]",% inhibition in vitro,trans-translation,52.3%
same,MIC,[1]; [7],> 200 µM
same,MIC,B. subtilis,> 200 µM
same,MIC,S. flexneri [2]; [9],> 200 µM
"O=C(NC1CCCCC1)c1cccc(Cl)c1 [Compound 12, 3-chloro-N-cyclohexylbenzamide]",% inhibition in vitro,trans-translation,44.6%
same,MIC,[1]; read-out: MIC B. anthracis,> 500 µM
same,MIC,S. flexneri [2]; read-out: MIC S. flexneri,> 500 µM
"CN(C)c1cccc2c(S(=O)(=O)NCCn3nnnc3NC(=O)c3cccc(Cl)c3)cccc12 [Dansyl-F2, 3-chloro-N-(1-(2-(5-(dimethylamino)naphthalene-1-sulfonamido)ethyl)-1H-tetrazol-5-yl)benzamide]",% inhibition in vitro,trans-translation,89.1%
same,IC50,B. anthracis ΔclpX+pclpX,6.22 µM
same,MIC,E. coli TolC mutant,25 µM
same,MIC,[1]; [7],7.8 µM
same,MIC,[1]; [8],5.3 µM
same,IC50,WT B. anthracis Sterne,5.28 µM
same,IC50,[3]; 48 h,181 µM
same,IC50,[3]; 72 h,100 µM
same,IC50,[3]; 96 h,96.4 µM
same,IC50,WT+pUTE29 (empty vector),9.88 µM
same,IC50,B. anthracis ΔclpX,5.93 µM
same,IC50,S. flexneri [4],> 200 µM
same,MIC,B. subtilis,13.3 µM
same,IC50,ΔclpX+pUTE29,6.28 µM
same,MIC,S. flexneri [2]; [9],> 200 µM
same,MIC,[6],~50 µM
same,Vegetative cells from spores (inhibition of spore germination),B. anthracis spores,No vegetative cells were observed
